Laboratory results taken from US8614203B2, “Methods for the treatment of a central nervous system injury via a tapered administration protocol” (Emory University, priority 2005, dated 2013).

Legend:
Assay type in all cases: in vivo, Sprague-Dawley rats
[1] = system: bilateral contusions of the medial prefrontal cortex; test: Example 1: bilateral sensory neglect (BSN) task after TBI; settings: 4 mg/kg, 3 days (LP3); 6 and 20 days post injury
Description: Male Sprague-Dawley rats (300 g) were housed individually in wire cages and kept on a reverse light-dark cycle (0800-2000 h). […] All procedures involving animals conformed to guidelines set forth in the Guide for the Care and Use of Laboratory Animals (U.S. Department of Health and Human Services, Pub no. 85-23, 1985) and were approved by the Emory University Institutional Animal Care and Use Committee.
Bilateral contusions of the medial prefrontal cortex were created by a pneumatic impactor device as previously described. Briefly, rats were given anesthetized with ketamine/xylazine (90 mg/kg; 10 mg/kg) and placed in a stereotaxic apparatus. […]
Experienced individuals who were blind to treatment conditions of the study conducted all histological and behavioral analyses. All data were tested for normality and homoschedasticity before being analyzed by parametric analysis of variance (ANOVA). MWM results were analyzed using separate mixed-factorial (4 groups×5 days) analysis of variance (ANOVA) on each of the two 5-day testing periods (acquisition and retention respectively). Results of the BSN task were analyzed using the mixed-factorial ANOVA (4 groups×2 post-injury trials). […]
Measures of attentional abilities, using a bilateral sensory neglect (BSN) task, were recorded one day prior to surgery (baseline) and on postsurgical days 6 and 20. […]

p53 = test: Example 4: Western blotting densitometry, p53; settings: all progesterone-treated animals (AW and TW); two weeks post-withdrawal
From the text: 60 male Sprague-Dawley rats weighing 290-310 g at the time of injury were used in this experiment. Food and water were provided ad libidum before and after surgery. Animals were handled and weighed daily from their arrival, seven days pre-surgery, to brain extraction three weeks post-surgery. Animals were handled in squads of 12, with n=10 per experimental condition. All animal procedures were approved by the Emory University Animal Care and Use Committee, Protocol #131-2002.
Isofluorane anesthesia was induced for four minutes and 45 seconds at 5% and maintained at 2.5%. Normal body temperature was maintained with a surgical heating pad placed beneath the sterile dressings. The scalp incision area was shaved and sterilized with iodine and isopropanol. A midline incision was made along the scalp and the fascia cleared to expose the surface of the skull. Medial, lateral, and dorsal stereotaxic coordinates were determined at bregma, and a 5-7 mm diameter bilateral craniotomy was performed mid-sagitally, 3 mm anterior to bregma. […] Sutures were used to close the incision after bleeding ceased. […]
Brains for protein analysis were sectioned into the immediate area of the lesion and snap frozen in 2-methyl-butane chilled on dry ice. […] The amount of brain homogenate needed to standardize samples to 2 μg/μL for Western blotting was calculated from the results of these assays. […]

[2] = system: medial frontal cortex injury or sham surgery; test: Example 3: behavioral testing (anxiety, locomotor, sensory neglect), acute vs tapered withdrawal
Description: Male Sprague-Dawley rats received either medial frontal cortex injury or sham surgery. Injections were given 1 and 6 hours post-injury, and every 24 hours for 7 days. Treatment groups (n=8) encompassed injured (I) and sham (S) acute withdrawal (AW), tapered withdrawal (TW) and vehicle (V) treatments. TW injections were progressively halved over the final two treatments. Behavioral testing was conducted post-surgery, mid- and post-withdrawal. Activity boxes were used to investigate vertical movements and exploration: Sensory neglect and anxiety behaviors were also analyzed. Brain harvesting was performed at 8 days or 3 weeks post-injury. Perfused tissue sections were analyzed for lesion volume and immunohistochemical response. Fresh brain tissue was flash frozen in chilled 2-methyl butane, and then homogenized for Western blot analysis.

## CC(=O)[C@H]1CC[C@H]2[C@@H]3CCC4=CC(=O)CC[C@]4(C)[C@H]3CC[C@]12C [progesterone, pregn-4-ene-3,20-dione]
[1]
  BSN task performance (latency to remove adhesive stimuli): impaired on this task compared to control animals at both 6 and 20 days post injury
p53
  p53 levels (long-term marker of apoptosis): p53 levels indistinguishable from vehicle shams
[2]; injured (AWI) vs tapered withdrawal, injured (TWI)
  anxiety, locomotor and sensory deficits: increase anxiety, locomotor and sensory deficits compared to tapered progesterone withdrawal
[2]; injured (AWI), one week later
  behavioral impairments one week after peak of withdrawal: increased behavioral impairments are still evident in AWI animals
[2]; shams (AWS) vs other shams
  motor impairments: increased motor impairments compared to all other shams
[2]; shams (AWS) vs tapered progesterone rats
  anxiety: increased anxiety compared to tapered progesterone rats
